US20140011700A1 (Bristol-Myers Squibb Company, published 2014)

B1: biotinylated 2'-O-methylated RNA oligonucleotide (ssRNA)
RNA: UAGAAACAAGGGUGUUUUUUCAGAUCUAUUAAACUUCACCCUGCUUUUGCU
modifications: 2'-OMe (stated as 2-O-methylated, positions not specified)

Assays:
[1] = target: NP (nucleoprotein, A/WSN/33) (Influenza A virus, UniProt P15682)
[2] = test system: H1N1 (A/SolomonIslands/3/2006); assay type: cell-based; conditions: read-out: A/Solomon-Islands/3/2006 (EC50)
H1N1 (A/CA/07/2009) = assay type: cell-based
[3] = test system: H3N2 (A/Brisbane/10/2007); assay type: cell-based
A/WSN/33 = assay type: cell-based
[4] = target: Influenza A nucleoprotein (NP) (Influenza A virus (A/WSN/33, H1N1), UniProt P15682 P15682:8-498); test: SPR; conditions: tags: N-terminal hexahistidine (pET28A), expressed in E. coli Rosetta II (DE3); label: 5'-biotin

Row | Molecule | % Pd (polydispersity) [1] | Rh (nm), hydrodynamic radius [1] | EC50 [2] | EC50 (H1N1 (A/CA/07/2009)) | EC50 [3] | EC50 (A/WSN/33) | Kd [4]
1 | COc1ccccc1-c1noc(C)c1C(=O)N1CCN(c2ccc([N+](=O)[O-])cc2Cl)CC1 [Compound B] | 10.2% | 8.2 ± 0.3 nm | 660 ± 220 nM | > 20000 nM | 7310 ± 1800 nM |  | 
2 | Cc1cc(Br)cnc1N1CCN(C(=O)c2c(-c3ccccc3Cl)noc2C)CC1 [Compound D] | 13.5% | 8.9 ± 0.2 nm | 2800 ± 530 nM | > 20000 nM | > 20000 nM | 1020 ± 1800 nM | 
3 | B1 |  |  |  |  |  |  | 11.2 nM
